Measurements published in US20100278858A1, “PROCESS FOR PREPARING […] STRAINS” (priority 2007, published 2010).
Converted amounts (≈) assume the structure as drawn. Where two headings read alike, the source gives them in different places.

Assays:
[1] = system: HSV-2 (G); assay type: cell-based; conditions: virus HSV-2 (G)
Experimental: (§1) According to the present invention, a method of reducing the viral plates comprises the following process: Vero cells monolayers developed in 24 wells microplates are infected with 50 UFP/well of virus in the absence or presence of different compounds concentrations. Each dilution is tested by duplicate. After 1 hour adsorption at 37° C., the inoculum is removed and covered by plating medium (culture media with methylcellulose at a final concentration of 0.7%). Inoculation is continued till the viral plates' appearance, which are then counted after fitting and dying the cells with violet crystal. Moreover, according to the present invention, 50% inhibitory concentration (IC50) means the compound concentration required for reducing about 50% the number of viral plates.
(§2) Compounds were present during the viral adsorption (1h, 37° C.) and after the infection. When a cytopathic action (ACP) between 80-90%, during a period among 24 to 72 hours p.i., was observed, cells were lysed with freeze-thawing cycles. In order to remove cellular moieties, the cellular lisate was centrifuged during 10 min at 1000 rpm, keeping the supernatant at −70° C. The supernatant was used to infect a new monolayer in the presence of SAMMA or PRO2000. […] The title and the IC50 of each viral passage was determined by viral plates reduction test (or after 2-3 passages) against SAMMA or PRO20000.

[2] = system: HSV-1 TK^− B2006; test: method of reducing viral plates (plaque reduction); assay type: cell-based; conditions: for Relative resistance (RR): IC50 of HSV-1 TK^− B2006 / IC50 of HSV-1 (F)
Experimental: as §1
(§3) Thus, preliminary tests of the cloned variants of passages with greater selection pressure of 1C3 (17, 20 and 21) with pyrimidine and purine analogous as aciclovir (ACV) and brivudin (BVDU) would disclose alterations at viral TK level as it is shown in Table VIII, a characteristic that, up to date, has not been published in previous art documents. The TK gene is not essential for the in vitro viral replication, though in vivo, is involved in the virulence, pathogenicity and reactivation since latency (Andrei G et al., 2005). […] Therefore, the selection pressure to which the viruses were subjected could have selected mutations in the TK gene and in additional superimposing genes generating strains with less in vivo pathogenic action (Jacobson J et al., 1993).

[3] = system: 1C3 syn 17-2; test: method of reducing viral plates (plaque reduction); assay type: cell-based, HSV-1; conditions: for Relative resistance (RR): IC50 of clone 1C3 syn 17-2 / IC50 of HSV-1 (F); for IC50: strain 1C3 syn 17-2
Experimental: as §1, §3

[4] = system: 1C3 syn 21-1; test: method of reducing viral plates (plaque reduction); assay type: cell-based, HSV-1; conditions: for Relative resistance (RR): IC50 of clone 1C3 syn 21-1 / IC50 of HSV-1 (F); for IC50: strain 1C3 syn 21-1
Experimental: as §1, §3

[5] = system: 1C3 syn 20-3; test: method of reducing viral plates (plaque reduction); assay type: cell-based, HSV-1; conditions: for Relative resistance (RR): IC50 of clone 1C3 syn 20-3 / IC50 of HSV-1 (F); for IC50: strain 1C3 syn 20-3
Experimental: as §1, §3

[6] = system: 1C3 syn 20-2; test: method of reducing viral plates (plaque reduction); assay type: cell-based, HSV-1; conditions: for Relative resistance (RR): IC50 of clone 1C3 syn 20-2 / IC50 of HSV-1 (F)
Experimental: as §1, §3

[7] = system: 1C3 syn 17-1; test: method of reducing viral plates (plaque reduction); assay type: cell-based, HSV-1; conditions: for Relative resistance (RR): IC50 of clone 1C3 syn 17-1 / IC50 of HSV-1 (F); for IC50: strain 1C3 syn 17-1
Experimental: as §1, §3

[8] = system: 1C3 syn 20-1; test: method of reducing viral plates (plaque reduction); assay type: cell-based, HSV-1; conditions: for Relative resistance (RR): IC50 of clone 1C3 syn 20-1 / IC50 of HSV-1 (F); for IC50: strain 1C3 syn 20-1
Experimental: as §1, §3

[9] = system: 1C3 syn 21-3; test: method of reducing viral plates (plaque reduction); assay type: cell-based, HSV-1; conditions: for Relative resistance (RR): IC50 of clone 1C3 syn 21-3 / IC50 of HSV-1 (F); for IC50: strain 1C3 syn 21-3
Experimental: as §1, §3

[10] = system: 1C3 syn 17-3; test: method of reducing viral plates (plaque reduction); assay type: cell-based, HSV-1; conditions: for Relative resistance (RR): IC50 of clone 1C3 syn 17-3 / IC50 of HSV-1 (F); for IC50: strain 1C3 syn 17-3
Experimental: as §1, §3

[11] = system: 1C3 syn 21-2; test: method of reducing viral plates (plaque reduction); assay type: cell-based, HSV-1; conditions: for Relative resistance (RR): IC50 of clone 1C3 syn 21-2 / IC50 of HSV-1 (F); for IC50: strain 1C3 syn 21-2
Experimental: as §1, §3

[12] = system: 1C3-syn-14-1; test: method of reducing viral plates (plaque reduction); assay type: cell-based, HSV-1; conditions: for Relative resistance (RR): IC50 of clone 1C3 syn 14-1 / IC50 of HSV-1 (F)
Experimental: as §1, §2

[13] = system: 1C3-syn-13-8; test: method of reducing viral plates (plaque reduction); assay type: cell-based, HSV-1
Experimental: as §1, §2

[14] = system: HSV-1 (F); test: method of reducing viral plates (plaque reduction); assay type: cell-based
Experimental: as §1, §2

[15] = system: Pro2000-syn13-9; test: method of reducing viral plates (plaque reduction); assay type: cell-based, HSV-2
Experimental: as §1, §2
(§4) By the end of a year, the corresponding virus to passages 13 and 16 in the presence of PRO2000 and SAMMA, respectively, were cloned in monolayers of Vero cells developed in 6 wells plates. The cellular monolayers were infected with a limited dilution of virus and were coated with maintenance media (MM) containing agarose 0.6%. After 2 days incubation, cells were dyed with neutral red and clones were stippled. For clone amplification, Vero cells with each selected clone were infected; after 1 hour adsorption at 37° C., the innoculum was discarded and was covered with MM, subjected to incubation 24-48 h at 37° C. till ACP development was observed.

[16] = system: Pro2000-13-5; test: method of reducing viral plates (plaque reduction); assay type: cell-based, HSV-2
Experimental: as §1, §2, §4

[17] = system: SAMMA-15-7; test: method of reducing viral plates (plaque reduction); assay type: cell-based, HSV-2
Experimental: as §1, §2, §4

[18] = system: Pro2000-syn13-1; test: method of reducing viral plates (plaque reduction); assay type: cell-based, HSV-2
Experimental: as §1, §2, §4

[19] = system: Pro2000-13-10; test: method of reducing viral plates (plaque reduction); assay type: cell-based, HSV-2
Experimental: as §1, §2, §4

[20] = system: SAMMA-15-3; test: method of reducing viral plates (plaque reduction); assay type: cell-based, HSV-2
Experimental: as §1, §2, §4

[21] = Human alphaherpesvirus 1, read-out: IC50

## Heparine
[1]
  IC50: 1.8 µg/mL
[2]
  Relative resistance (RR): 3.0
[2]; strain HSV-1 TK^− B2006
  IC50: 3.5 µg/mL
[3]
  Relative resistance (RR): > 16.0
  IC50: > 20 µg/mL
[4]
  Relative resistance (RR): 8.0
  IC50: 10.0 µg/mL
[5]
  Relative resistance (RR): > 16.0
  IC50: > 20 µg/mL
[6]
  Relative resistance (RR): > 16.0
[6]; strain 1C3 syn 20-2
  IC50: > 20 µg/mL
[7]
  Relative resistance (RR): 8.0
  IC50: 10.0 µg/mL
[8]
  Relative resistance (RR): > 16.0
  IC50: > 20 µg/mL
[9]
  Relative resistance (RR): 5.7
  IC50: 7.1 µg/mL
[10]
  Relative resistance (RR): 5.7
  IC50: 7.1 µg/mL
[11]
  Relative resistance (RR): 8.0
  IC50: 10.0 µg/mL
[12]; Table IV, IC50 of variant 1C3-syn-14-1 / IC50 for HSV-1 (F)
  RR (relative resistance): 2.9
[12]; Table IV, virus 1C3-syn-14-1
  IC50: 4.1 µg/mL
[12]; Table VIII
  Relative resistance (RR): 5.7
[12]; Table VIII, strain 1C3 syn 14-1
  IC50: 7.1 µg/mL
[12]; variant 1C3-syn-14-1
  susceptibility of variant to drug (in words): resistant
[13]; IC50 of variant 1C3-syn-13-8 / IC50 for HSV-1 (F)
  RR (relative resistance): 0.9
[13]; Table IV, virus 1C3-syn-13-8
  IC50: 1.2 µg/mL
[13]; variant 1C3-syn-13-8
  susceptibility of variant to drug (in words): sensitive
[14]; Table IV, virus HSV-1 (F)
  IC50: 1.4 µg/mL
[14]; Table VIII, strain HSV-1 (F)
  IC50: 1.25 µg/mL
[15]; IC50 of variant Pro2000-syn13-9 / IC50 for HSV-2 (G)
  RR (relative resistance): 10.8
[15]; variant Pro2000-syn-13-9
  susceptibility of variant to drug (in words): resistant
[15]; virus Pro2000-syn13-9
  IC50: 19.5 µg/mL
[16]; IC50 of variant Pro2000-13-5 / IC50 for HSV-2 (G)
  RR (relative resistance): 1.2
[16]; virus Pro2000-13-5
  IC50: 2.2 µg/mL
[17]; IC50 of variant SAMMA-15-7 / IC50 for HSV-2 (G)
  RR (relative resistance): 6.7
[17]; virus SAMMA-15-7
  IC50: 12.0 µg/mL
[18]; IC50 of variant Pro2000-syn13-1 / IC50 for HSV-2 (G)
  RR (relative resistance): 4.3
[18]; virus Pro2000-syn13-1
  IC50: 7.8 µg/mL
[19]; IC50 of variant Pro2000-13-10 / IC50 for HSV-2 (G)
  RR (relative resistance): 1.4
[19]; virus Pro2000-13-10
  IC50: 2.6 µg/mL
[20]; IC50 of variant SAMMA-15-3 / IC50 for HSV-2 (G)
  RR (relative resistance): 4.6
[20]; variant SAMMA-15-3
  susceptibility of variant to drug (in words): resistant
[20]; virus SAMMA-15-3
  IC50: 8.4 µg/mL

## O=C(O)P(=O)(O)O [Foscarnet, foscarnet]
[2]; Human alphaherpesvirus 1
  IC50: 35.1 µg/mL (≈ 279 µM)
[2]
  Relative resistance (RR): 5.0
[3]; [21]
  IC50: 12.5 µg/mL (≈ 99.2 µM)
[3]
  Relative resistance (RR): 2.0
[4]; [21]
  IC50: 8.82 µg/mL (≈ 70 µM)
[4]
  Relative resistance (RR): 1.4
[5]; [21]
  IC50: 17.6 µg/mL (≈ 140 µM)
[5]
  Relative resistance (RR): 2.9
[6]; Human alphaherpesvirus 1
  IC50: 12.5 µg/mL (≈ 99.2 µM)
[6]
  Relative resistance (RR): 2.0
[7]; [21]
  IC50: 17.6 µg/mL (≈ 140 µM)
[7]
  Relative resistance (RR): 2.9
[8]; [21]
  IC50: 12.5 µg/mL (≈ 99.2 µM)
[8]
  Relative resistance (RR): 2.0
[9]; [21]
  IC50: 12.5 µg/mL (≈ 99.2 µM)
[9]
  Relative resistance (RR): 2.0
[10]; [21]
  IC50: 17.6 µg/mL (≈ 140 µM)
[10]
  Relative resistance (RR): 2.9
[11]; [21]
  IC50: 17.6 µg/mL (≈ 140 µM)
[11]
  Relative resistance (RR): 2.9
[12]; Human alphaherpesvirus 1, Table VIII, strain 1C3 syn 14-1, read-out: IC50
  IC50: 3.12 µg/mL (≈ 24.8 µM)
[12]; Table VIII
  Relative resistance (RR): < 1.0
[14]; Human alphaherpesvirus 1, Table VIII, strain HSV-1 (F), read-out: IC50
  IC50: 6.12 µg/mL (≈ 48.6 µM)
